Experimental data taken from US9512139B2, “Conformationally constrained, fully synthetic macrocyclic compounds” (POLYPHOR AG, priority 2009, dated 2016).

Columns and labels:
Motilin Receptor = biological target: T1, Motilin Receptor (Homo sapiens, UniProt O43193); assay: Ca2+ assay (FLIPR) for the GPCR motilin receptor, agonist and antagonist mode; type: cell-based; details: antagonist mode
T1 construct: host or cells: Ca2+ optimized hematopoietic cell lines (rat)
Procedure: Ca^2+ Assays for the GPCRs Motilin Receptor, Prostaglandin F (FP) Receptor, 5-hydroxytryptamine 2B (5-HT2B) Receptor, and Purinoreceptor P2Y1
Assays were performed using on a FLIPR^TETRA fluorometric imaging plate reader (Molecular Devices) with ScreenWorks Version 2 (Molecular Devices) as device operating and data analysis software.
Dose dependent agonist and antagonist activities were determined. Percentage activation and percentage inhibition values were determined.
Percentage activation was determined upon initial addition of the sample compounds followed by 10 minutes incubation at 25° C. Following compound incubation, reference agonists were added at EC80 to determine percentage inhibition.
Reference agonists were purchased from reputable commercial vendors and prepared according to each ligand's specifications. All handling of ligands were done to ensure proper control throughout the experiments.
Example compounds were weighed on a Microbalance (Mettler MX5) and dissolved in 100% DMSO to a final concentration of 2.5 mM and subsequently diluted into the assay buffer.
The Assay buffer was a supplemented HBSS (Hank's Balanced Salt Solution). HBSS was supplemented with 20 mM HEPES (4-(2-hydroxyethyl)-piperazin-1-ethansulfonic acid) and 2.5 mM Probenecid (Sigma P8761).
GPCR assays were performed using Ca^2+ optimized hematopoietic cell lines (rat) with cultures never exceeding 90% confluency. […] After seeding, the assay plates were incubated for forty-five (45) minutes at room temperature. After room temperature incubation, the assay plates were incubated at 37° C. 5% CO2 for 24 hours prior to assaying.
All GPCR assays were performed using Fluo-8 Ca^2+ dye. Ca^2+ dye was prepared at 1× dye concentration in GPCR assay buffer. After 24 hours of incubation, cells were washed with GPCR assay buffer, and then Ca^2+-dye (100 μL/well) was added.
The plates were incubated for 90 minutes at 30° C. 5% CO2 prior to FLIPR assay.
Compound plates were prepared to add 50 μL/well during the agonist assay mode. During the FLIPR assay, 50 μL/well from the compound plate was diluted 3-fold into the existing 100 μL/well from the dye loading step. Therefore all compounds were prepared as 3× the final concentration desired in the assay.
After completion of the first single addition assay run, assay plate was removed from the FLIPR Tetra and placed at 25° C. for seven (7) minutes before antagonist assay.
Using the EC80 values determined during the agonist assay, all pre-incubated sample compound and reference antagonist (if applicable) wells were stimulated at the EC80 of the reference agonist. As reference ligands for the first three assays their obvious natural ligands motilin, prostaglandin F2α, and serotonin (5-HT, 5-Hydroxytryptamine) were used; and for the P2Y1 assay 2MeSATP (2-methyl-thio-adeno-sine 5′-triphosphate, i.e. (2R,3S,4R)-5-(6-amino-2-methylsulfanyl-purin-9-yl)-3,4-dihydroxy-tetrahydrofuran-2-yl]methyl (hydroxy-phosphonooxy-phosphoryl)hydrogen phosphate) was applied.
After the addition of the reference agonist fluorescence was monitored for 180 sec using FLIPR Tetra.
Data Analysis and Results:
From the FLIPR data, with negative control correction enabled, the maximum statistic for each well was exported and percentage activation relative to Emax control was calculated.

in vitro [1] = type: in vitro ADME, human; details: human, plasma, 10 µM; for Plasma Stability 240 min hum [% remain.]: 4 h
in vitro [2] = type: in vitro ADME, mouse; details: both, CD-1, mouse, plasma, 10 µM; for Plasma Stability 240 min mouse [% remain.]: 4 h
Procedure: Example compounds were dissolved in DMSO/H2O 90:10 to a final concentration of 10 mM for plasma stability determination and metabolic stability determination.
Human plasma (3-5 donors, Blutspendedienst SRK, Basel) and CD-1 mouse plasma (mixed gender pool >50 animals, Innovative Research, CA, USA) are both sodium citrate stabilized. The assay is performed in triplicates at 10 μM compound concentration and 37° C. Samples are taken at 0, 15, 60, and 240 minutes and stopped by precipitation with 2 volumes of acetonitrile. The supernatant is collected, evaporated and reconstituted in a 5% acetonitrile solution to be analyzed by HPLC/MS/MS. The resulting peak area counts are expressed in percent of the 0 value and used to determine the endpoint stability in % and the half life in minutes. In order to monitor assay integrity the degradation of propantheline is assayed with every experimental set.

[3] = Metabolic stability assay, human microsomes; type: in vitro ADME; details: human, microsomes; for Metabolic Stability T½ [min] hum / Metabolic Stability 60 min hum [% remain.]: both, 10 µM; for Metabolic Stability 60 min hum [% remain.]: 1 h; for half-life at 10 µM: both sexes
[4] = Metabolic stability assay, CD-1 mouse microsomes; type: in vitro ADME; details: both, CD-1, mouse, microsomes, 10 µM; for Metabolic Stability 60 min mouse [% remain.]: 1 h
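Throughout, for Plasma Stability 240 min mouse [% remain.]: sodium citrate stabilized mouse plasma, parent compound quantified by HPLC/MS/MS relative to its peak area at time zero, run in triplicate.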
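Throughout, for Plasma Stability T½ [min] mouse: sodium citrate stabilized mouse plasma, parent compound quantified by HPLC/MS/MS relative to its peak area at time zero, run in triplicate.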

T1 sequence (O43193 whole entry, species assumed): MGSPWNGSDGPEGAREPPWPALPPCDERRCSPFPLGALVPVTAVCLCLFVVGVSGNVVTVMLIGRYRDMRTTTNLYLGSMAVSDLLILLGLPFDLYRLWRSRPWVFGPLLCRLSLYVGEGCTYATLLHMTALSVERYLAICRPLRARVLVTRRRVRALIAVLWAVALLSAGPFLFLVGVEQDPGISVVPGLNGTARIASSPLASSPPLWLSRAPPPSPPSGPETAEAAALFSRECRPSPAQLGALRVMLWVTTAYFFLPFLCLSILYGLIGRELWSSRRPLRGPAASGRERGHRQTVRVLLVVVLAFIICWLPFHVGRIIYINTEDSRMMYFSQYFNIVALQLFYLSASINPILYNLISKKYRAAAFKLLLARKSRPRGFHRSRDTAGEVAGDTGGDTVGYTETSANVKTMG

## CN(C)CCNC(=O)[C@@H]1CCC(=O)N(C)CC(=O)N2C[C@@H](NC(=O)Cc3c[nH]c4ccccc34)C[C@H]2COc2ccc(F)cc2C(=O)N1C [Ex. 11, (2S,11S,19aS)-N-[2-(dimethylamino)ethyl]-15-fluoro-2-{[2-(1H-indol-3-yl)acetyl]amino}-7,12-dimethyl-5,8,13-trioxo-2,3,6,7,8,9,10,11,12,13, 19,19a-dodecahydro-1H,5H-pyrrolo[2,1-c] [1,4,7,12]benzoxatriazacyclopentadecine-11-carboxamide]
Motilin Receptor
  IC50: 0.78 µM
Motilin Receptor; at 10 μM
  inhibition at 10 µM: 79%
In vitro [1]
  Plasma Stability T½ [min] hum: > 240 min
  Plasma Stability 240 min hum [% remain.]: 100 % remain.
In vitro [2]
  Plasma Stability T½ [min] mouse: > 240 min
  Plasma Stability 240 min mouse [% remain.]: 100 % remain.
[3]
  Metabolic Stability T½ [min] hum: > 60 min
  Metabolic Stability 60 min hum [% remain.]: 74 % remain.
[4]
  Metabolic Stability T½ [min] mouse: > 60 min
  Metabolic Stability 60 min mouse [% remain.]: 77 % remain.

## CN(C)CCNC(=O)[C@@H]1CCC(=O)N(C)CC(=O)N2C[C@@H](NC(=O)Cc3ccc4ccccc4c3)C[C@H]2COc2ccc(F)cc2C(=O)N1C [Ex. 48, (2S,11S,19aS)-N-[2-(dimethylamino)ethyl]-15-fluoro-7,12-dimethyl-2-{[2-(2-naphthyl)acetyl]amino}-5,8,13-trioxo-2,3,6,7,8,9,10,11,12,13,19,19a-dodecahydro-1H,5H-pyrrolo[2,1-c] [1,4,7,12] benzoxatriazacyclopentadecine-11-carboxamide]
Motilin Receptor; at 10 μM
  inhibition at 10 µM: 29%

## CN(C)CCNC(=O)[C@@H]1CCC(=O)N(C)CC(=O)N2C[C@@H](NC(=O)Cc3cccc4ccccc34)C[C@H]2COc2ccc(F)cc2C(=O)N1C [Ex. 49, (2S,11S,19aS}-N-[2-(dimethylamino)ethyl]-15-fluoro-7,12-dimethyl-2-{[2-(1-naphthyl)acetyl]amino}-5,8,13-trioxo-2,3,6,7,8,9,10,11,12,13,19,19a-dodecahydro-1H,5H-pyrrolo[2,1-c] [1,4,7,12] benzoxatriazacyclopentadecine-11-carboxamide]
Motilin Receptor
  IC50: 0.16 µM
Motilin Receptor; at 10 μM
  inhibition at 10 µM: 98%
In vitro [1]
  Plasma Stability T½ [min] hum: > 240 min
  Plasma Stability 240 min hum [% remain.]: 83 % remain.
In vitro [2]
  Plasma Stability T½ [min] mouse: > 240 min
  Plasma Stability 240 min mouse [% remain.]: 96 % remain.
[3]
  half-life at 10 µM: 0.4 h
  Metabolic Stability 60 min hum [% remain.]: 10 % remain.
[4]
  Metabolic Stability T½ [min] mouse: > 60 min
  Metabolic Stability 60 min mouse [% remain.]: 83 % remain.

## CN(C)CCNC(=O)[C@@H]1CCC(=O)N(C)CC(=O)N2C[C@@H](NC(=O)Nc3cccc4ccccc34)C[C@H]2COc2ccc(F)cc2C(=O)N1C [Ex. 482, (2S,11S,19aS)-N-[2-(dimethylamino)ethyl]-15-fluoro-7,12-dimethyl-2-{[(1-naphthylamino)carbonyl]amino}-5,8,13-trioxo-2,3,6,7,8,9,10, 11,12,13,19,19a-dodecahydro-1H,5H-pyrrolo [2,1-c] [1,4,7,12]benzoxatriazacyclopentadecine-11-carboxamide]
Motilin Receptor
  IC50: 1.1 µM
Motilin Receptor; at 10 μM
  inhibition at 10 µM: 62%
In vitro [1]
  Plasma Stability T½ [min] hum: > 240 min
  Plasma Stability 240 min hum [% remain.]: 100 % remain.
In vitro [2]
  Plasma Stability T½ [min] mouse: > 240 min
  Plasma Stability 240 min mouse [% remain.]: 100 % remain.
[3]
  half-life at 10 µM: 0.367 h
  Metabolic Stability 60 min hum [% remain.]: 11 % remain.
[4]
  Metabolic Stability T½ [min] mouse: > 60 min
  Metabolic Stability 60 min mouse [% remain.]: 84 % remain.

## CN1CC(=O)N2C[C@@H](NC(=O)Cc3cccc4ccccc34)C[C@H]2COc2ccc(F)cc2C(=O)N(C)[C@H](C(=O)NCCN)CCC1=O [Ex. 483, (2S,11S,19aS)-N-(2-aminoethyl)-15-fluoro-7,12-dimethyl-2-{[2-(1-naphthyl)acetyl]amino)-5,8,13-trioxo-2,3,6,7,8,9,10,11,12, 13,19,19a-dodecahydro-1H,5H-pyrrolo [2,1-c] [1,4,7,12]benzoxatriazacyclopentadecine-11-carboxamide]
Motilin Receptor
  IC50: 0.023 µM
Motilin Receptor; at 10 μM
  inhibition at 10 µM: 100%
In vitro [1]
  Plasma Stability T½ [min] hum: > 240 min
  Plasma Stability 240 min hum [% remain.]: 100 % remain.
In vitro [2]
  Plasma Stability T½ [min] mouse: > 240 min
  Plasma Stability 240 min mouse [% remain.]: 100 % remain.
[3]
  Metabolic Stability T½ [min] hum: > 60 min
  Metabolic Stability 60 min hum [% remain.]: 55 % remain.
[4]
  Metabolic Stability T½ [min] mouse: > 60 min
  Metabolic Stability 60 min mouse [% remain.]: 85 % remain.

## CC(=O)NCCNC(=O)[C@@H]1CCC(=O)N(C)CC(=O)N2C[C@@H](NC(=O)Cc3cccc4ccccc34)C[C@H]2COc2ccc(F)cc2C(=O)N1C [Ex. 487, (2S,11S,19aS)-N-[2-(acetylamino)ethyl]-15-fluoro-7,12-dimethyl-2-{[2-(1-naphthyl)acetyl]amino}-5,8,13-trioxo-2,3,6,7,8,9,10,11,12,13,19,19a-dodecahydro-1H,5H-pyrrolo[2,1-c] [1,4,7,12]benzoxatri-azacyclopentadecine-11-carboxamide]
Motilin Receptor; at 10 μM
  inhibition at 10 µM: 47%

## CN(C)CCCNC(=O)[C@@H]1CCC(=O)N(C)CC(=O)N2C[C@@H](NC(=O)Cc3cccc4ccccc34)C[C@H]2COc2ccc(F)cc2C(=O)N1C [Ex. 488, (2S,11S,19aS)-N-[3-(dimethylamino)propyl]-15-fluoro-7,12-dimethyl-2-{[2-(1-naphthyl)acetyl]amino}-5,8,13-trioxo-2,3,6,7,8,9,10,11,12,13,19,19a-dodecahydro-1H,5H-pyrrolo[2,1-c] [1,4,7,12] benzoxatriazacyclopentadecine-11-carboxamide]
Motilin Receptor; at 10 μM
  inhibition at 10 µM: 23%

## CN(C)CCNC(=O)[C@@H]1CCC(=O)N(C)CC(=O)N2C[C@@H](NC(=O)Cc3cccc(C(F)(F)F)c3)C[C@H]2COc2ccc(F)cc2C(=O)N1C [Ex. 495, (2S,11S,19aS)-N-[2-(dimethylamino)ethyl]-15-fluoro-7,12-dimethyl-5,8,13-trioxo-2-({2-[3-(trifluoromethyl)phenyl]acetyl}amino)-2,3,6,7,8,9,10,11,12,13,19,19a-dodecahydro-1H,5H-pyrrolo[2,1-c] [1,4,7,12] benzoxatriazacyclopentadecine-11-carboxamide]
Motilin Receptor; at 10 μM
  inhibition at 10 µM: 26%

## COc1cccc(CC(=O)N[C@H]2C[C@H]3COc4ccc(F)cc4C(=O)N(C)[C@H](C(=O)NCCN(C)C)CCC(=O)N(C)CC(=O)N3C2)c1 [Ex. 496, (2S,11S,19aS)-N-[2-(dimethylamino)ethyl]-15-fluoro-2-{[2-{3-methoxyphenyl)acetyl]amino}-7,12-dimethyl-5,8,13-trioxo-2,3,6,7,8,9,10,11,12,13,19,19a-dodecahydro-1H,5H-pyrrolo[2,1-c] [1,4,7,12]benzoxatriazacyclopentadecine-11-carboxamide]
Motilin Receptor; at 10 μM
  inhibition at 10 µM: 31%

## CN1CC(=O)N2C[C@@H](NC(=O)Cc3cccc4ccccc34)C[C@H]2COc2ccc(F)cc2C(=O)N(C)[C@H](C(=O)NCc2cccnc2)CCC1=O [Ex. 497, (2S,11S,19aS)-15-fluoro-7,12-dimethyl-2-{[2-(1-naphthyl)acetyl]amino}-5,8,13-trioxo-N-(3-pyridinylmethyl)-2,3,6,7,8,9, 10,11,12,13,19,19a-dodecahydro-1H,5H-pyrrolo[2,1-c][1,4,7,12]benzoxatriazacyclo-pentadecine-11-carboxamide]
Motilin Receptor; at 10 μM
  Antagonist activity [% Inhibition at 10 μM]: 24%
